The data set concerns Human Heme Oxygenase-1 (HMOX-1). As to the kind of experiment: ELISA assay to measure human heme oxygenase-1 (HMOX-1) in HepG2 lysate. The note with it: fold change of human HMOX1 protein levels relative to DMSO control, HepG2. It counts as cell-based. How it is done:
Example 143. ELISA Assay to Measure Human Heme Oxygenase-1 (HMOX-1) in HepG2 lysate
Reagents and Technical Notes:
ELISA capture antibody, standard HO-1, detection antibody and streptavidin HRP were supplied in the DuoSet IC Human total HO-1 ELISA from R&D systems (DYC3776-2). The substrate cocktail was KPL LumiGLO reserve Chemiluminescent Substrate (54-71-00). PBS was Corning Cellgro Cell Culture (21-040-CV). 10×PBS+0.05% tween20 (PBST) was from KPL.
All incubations of the plate were at room temperature (20° C.) in a closed drawer.
The ELISA plate was processed manually. All loadings were with a multichannel pipet. Plates were emptied by shaking into the sink and tapping onto paper towels to remove any remaining reagent. Plate washing was accomplished by loading all wells with PBS+0.05% tween20 (PBST) using a squirt bottle, shaking the PBST out and tapping the plate onto paper towels.
Preparation of the ELISA Plate: • 1. anti-HO-1 capture antibody was 1440 μg/ml after reconstitution in PBS. This antibody was diluted to 8 μg/ml in PBS and 50 μl per well was added to a 384 well greiner “lumitrac 200” plate. Incubated overnight. • 2. The plate was emptied and 100 μl PBS+1% BSA added to all wells. Incubated 90 minutes at room temperature.
Preparation of HepG2 Lysate: • 1. Cells were cultured in a 96-well tissue culture plate washed with PBS and then the plate frozen at −70° C. overnight. Plates were allowed to warm to ice temperature in an ice bucket. 20 μl of PBS, 0.5% Triton X100, 1 mM EDTA with 1×HALT™ protease inhibitors was added to each well and the plates incubated on ice for 1 hour. • 2. The lysates were frozen at −20° C. overnight.
Measurement of HMOX1 (“HO-1”) • 1. In a polypropylene 384 well plate, human HO-1(after reconstitution in PBS+0.5% Triton+1 mM EDTA) was serially diluted from 20 ng/ml 2-fold in PBS+0.5% triton-X100, 1 mM EDTA to make a 12-point standard curve including a zero point. • 2. In a polypropylene 96 well plate, HepG2 lysate was diluted 1 to 20 in Diluent #4 from DUOSET kit in which the assay standard is also diluted. • 3. The PBS+1% BSA was emptied from the ELISA plate and 30 μl of all samples and standards were added (duplicates recommended). The plate was incubated 90 minutes. • 4. Emptied plate and washed 4 times with PBST. • 5. Diluted HO-1 detection antibody to 200 ng/ml in PBS+1% BSA and added 30 μl to all wells. Incubated 90 minutes. • 6. Emptied plate and washed 4 times with PBST. • 7. Added 30 μl streptavidin HRP at 1/200 in PBS+1% BSA (stock streptavidin concentration not specified) to all wells. Incubated 30 minutes. • 8. Emptied plate and washed 4 times with PBST. • 9. Diluted Lumiglo reserve reagent two parts buffer to one part lumiglo substrate. Added 30 μl to all wells. Incubated 5 minutes. • 10. Measured chemiluminescence on spectramax M5 using 150 ms integration.
Table 1 below lists EC50 and fold changes of human HMOX1 protein levels relative to DMSO control upon treatment with representative compounds.
For orientation: ELISA stands for enzyme-linked immunosorbent assay.
For the molecule `COCCNC(=O)c1ccc2c(c1)nc(Nc1nc3ccc(OCCO)cc3o1)n2C` [Example 102, 2-((6-(2-hydroxyethoxy)benzo[d]oxazol-2-yl)amino)-N-(2-methoxyethyl)-1-methyl-1H-benzo[d]imidazole-5-carboxamide], the “Maximum Fold induction” value is reported as 26-40.
`Cn1c(Nc2nc3cc(Cl)ccc3[nH]2)nc2cc(C(=O)O)ccc21` [Example 82, 2-((5-chloro-1H-benzo[d]imidazol-2-yl)amino)-1-methyl-1H-benzo[d]imidazole-5-carboxylic acid]: the “Maximum Fold induction” value is on record as 29-33.
Next, `Cn1c(Nc2nc3cc(F)ccc3[nH]2)nc2cc(C(=O)O)ccc21` [Example 73, 2-((5-fluoro-1H-benzo[d]imidazol-2-yl)amino)-1-methyl-1H-benzo[d]imidazole-5-carboxylic acid]: 8-12; `Cn1c(Nc2nc3ccc(C4CC4)cc3o2)nc2cc(C(=O)O)ccc21` [Example 115, 2-((6-cyclopropylbenzo[d]oxazol-2-yl)amino)-1-methyl-1H-benzo[d]imidazole-5-carboxylic acid]: 71; `CN(C)CCNC(=O)c1ccc2c(c1)nc(Nc1nc3ccccc3o1)n2C` [Example 21, 2-(benzo[d]oxazol-2-ylamino)-N-(2-(dimethylamino)ethyl)-1-methyl-1H-benzo[d]imidazole-5-carboxamide]: 14.
Next, `COCCNC(=O)c1ccc2c(c1)nc(Nc1nc3ccc(OC(F)(F)F)cc3o1)n2C1CCOCC1` [Example 80, N-(2-methoxyethyl)-1-(tetrahydro-2H-pyran-4-yl)-2-((6-(trifluoromethoxy)benzo[d]oxazol-2-yl)amino)-1H-benzo[d]imidazole-5-carboxamide]: 22-23.
In the case of `O=C(O)c1ccc2c(c1)nc(Nc1nc3ccc(OC(F)(F)F)cc3s1)n2C1CCOCC1` [Example 2d, 1-(tetrahydro-2H-pyran-4-yl)-2-((6-(trifluoromethoxy)benzo[d]thiazol-2-yl)amino)-1H-benzo[d]imidazole-5-carboxylic acid] it was 10 (n = 2); in that of `COCCNC(=O)c1cc2nc(Nc3nc4ccc(OC(F)(F)F)cc4o3)n(C)c2cc1F` [Example 71, 6-fluoro-N-(2-methoxyethyl)-1-methyl-2-((6-(trifluoromethoxy)benzo[d]oxazol-2-yl)amino)-1H-benzo[d]imidazole-5-carboxamide], 8-12.
On to `Cn1c(Nc2nc3ccccc3o2)nc2cc(C(=O)NCCO)ccc21` [Example 16, 2-(benzo[d]oxazol-2-ylamino)-N-(2-hydroxyethyl)-1-methyl-1H-benzo[d]imidazole-5-carboxamide], for which the “Maximum Fold induction” value was 8-27.
Turning to `Cn1c(Nc2nc3ccc(C(C)(C)O)cc3o2)nc2cc(C(=O)NCCO)ccc21` [Example 133, N-(2-hydroxyethyl)-2-((6-(2-hydroxypropan-2-yl)benzo[d]oxazol-2-yl)amino)-1-methyl-1H-benzo[d]imidazole-5-carboxamide], the “Maximum Fold induction” value is 17.
In the case of `Cn1c(Nc2nc3ccccc3o2)nc2cc(C(N)C(F)(F)F)ccc21` (stereo not drawn) [Example 141, N-(5-(1-amino-2,2,2-trifluoroethyl)-1-methyl-1H-benzo[d]imidazol-2-yl)benzo[d]oxazol-2-amine] it was 22.
Next, `Cl.Cn1c(Nc2nc3ccc(OCCO)cc3o2)nc2cc(C(=O)NCCN)ccc21` [Example 105, N-(2-aminoethyl)-2-((6-(2-hydroxyethoxy)benzo[d]oxazol-2-yl)amino)-1-methyl-1H-benzo[d]imidazole-5-carboxamide hydrochloride]: 36; `COCCNC(=O)c1ccc2c(c1)nc(Nc1nc3cc(C)ccc3o1)n2C` [Example 65, N-(2-methoxyethyl)-1-methyl-2-((5-methylbenzo[d]oxazol-2-yl)amino)-1H-benzo[d]imidazole-5-carboxamide]: 15-42.
Regarding `Cn1c(Nc2nc3ccc(N4CCOCC4)cc3o2)nc2cc(C(=O)NCCOCCO)ccc21` [Example 136, N-(2-(2-hydroxyethoxy)ethyl)-1-methyl-2-((6-morpholinobenzo[d]oxazol-2-yl)amino)-1H-benzo[d]imidazole-5-carboxamide], the “Maximum Fold induction” value is given as 36.
Next, `Cn1c(Nc2nc3ccccc3o2)nc2cc(C(=O)NCCOCC(=O)O)ccc21` [Example 29, 2-(2-(2-(benzo[d]oxazol-2-ylamino)-1-methyl-1H-benzo[d]imidazole-5-carboxamido)ethoxy)acetic acid]: 12; `COCCNC(=O)c1ccc2c(c1)nc(Nc1nc3ccc(C(F)(F)F)cc3o1)n2C` [Example 32, N-(2-methoxyethyl)-1-methyl-2-((6-(trifluoromethyl)benzo[d]oxazol-2-yl)amino)-1H-benzo[d]imidazole-5-carboxamide]: 14-50.
In the case of `Cn1c(Nc2nc3ccccc3o2)nc2cc(C(=O)NCCN3CCOCC3)ccc21` [Example 20, 2-(benzo[d]oxazol-2-ylamino)-1-methyl-N-(2-morpholinoethyl)-1H-benzo[d]imidazole-5-carboxamide] it was 8; in that of `CN(C)CCONC(=O)c1ccc2c(c1)nc(Nc1nc3ccc(C(F)(F)F)cc3o1)n2C` [Example 122, N-(2-(dimethylamino)ethoxy)-1-methyl-2-((6-(trifluoromethyl)benzo[d]oxazol-2-yl)amino)-1H-benzo[d]imidazole-5-carboxamide], 51-67; in that of `Cn1c(Nc2nc3ccc(OCCO)cc3o2)nc2cc(C(=O)O)ccc21` [Example 101, 2-((6-(2-hydroxyethoxy)benzo[d]oxazol-2-yl)amino)-1-methyl-1H-benzo[d]imidazole-5-carboxylic acid], 21.
`CC(C)C(N)C(=O)OCCOCCNC(=O)c1ccc2c(c1)nc(Nc1nc3ccccc3o1)n2C.Cl` (racemic) [Example 30, 2-(2-(2-(benzo[d]oxazol-2-ylamino)-1-methyl-1H-benzo[d]imidazole-5-carboxamido)ethoxy)ethyl DL-valinate hydrochloride]: the “Maximum Fold induction” value is on record as 25-53.
Next, `CC(C)c1ccc2nc(Nc3nc4cc(C(=O)O)ccc4n3C)oc2c1` [Example 59, 2-((6-isopropylbenzo[d]oxazol-2-yl)amino)-1-methyl-1H-benzo[d]imidazole-5-carboxylic acid]: 30; `Cn1c(Nc2nc3ccc(OC(F)(F)F)cc3o2)nc2cc(C(=O)NCCO)ccc21` [Example 53, N-(2-hydroxyethyl)-1-methyl-2-((6-(trifluoromethoxy)benzo[d]oxazol-2-yl)amino)-1H-benzo[d]imidazole-5-carboxamide]: 29-38; `Cn1c(Nc2nc3ccc(Cl)cc3o2)nc2cc(C(=O)NCCO)ccc21` [Example 97, 2-((6-chlorobenzo[d]oxazol-2-yl)amino)-N-(2-hydroxyethyl)-1-methyl-1H-benzo[d]imidazole-5-carboxamide]: 33-51.
For the molecule `Cn1c(Nc2nc3ccc(C(F)(F)F)cc3o2)nc2cc(C(=O)NCCOCC(=O)O)ccc21` [Example 41, 2-(2-(1-methyl-2-((6-(trifluoromethyl)benzo[d]oxazol-2-yl)amino)-1H-benzo[d]imidazole-5-carboxamido)ethoxy)acetic acid], the “Maximum Fold induction” value is reported as 35-39.

(Values after US20240051952A1, “HMOX1 INDUCERS” (Mitobridge Inc., priority 2019, published 2024).)
